According to patent US5602101A, “Antithrombotic agents” (priority 1994, dated 1997):

How the values were obtained:
[1] = target: T1, human thrombin (Homo sapiens, UniProt P00734); assay: Inhibition of amidase activity of thrombin (chromogenic substrate), Kass; assay type: biochemical; settings: substrate N-benzoyl-Phe-Val-Arg-p-nitroanilide, pH 7.4
T1 construct: purified human thrombin Enzyme Research Laboratories, South Bend, Ind; purchased Enzyme Research Laboratories, South Bend, Ind
Experimental: (§1) The assay is carried out by mixing 50 μl buffer (0.03M Tris, 0.15M NaCl, pH 7.4), 25 μl of human thrombin solution (purified human thrombin Enzyme Research Laboratories, South Bend, Ind.) at 8 NIH units/ml and 25 μl of test compound in a solvent (50% aqueous methanol (v:v)). Then 150 μl of an aqueous solution of the chromogenic substrate (at 0.25 mg/ml) are added and the rates of hydrolysis of the substrate are measured by monitoring the reactions at 405 nm for the release of p-nitroaniline. Standard curves are constructed by plotting free thrombin concentration against hydrolysis rate. The hydrolysis rates observed with test compounds are then converted to "free thrombin" values in the respective assays by use of the standard curves. The bound thrombin (bound to test compound) is calculated by subtracting the amount of free thrombin observed in each assay from the known initial amount of thrombin used in the assay. The amount of free inhibitor in each assay is calculated by subtracting the number of moles of bound thrombin from the number of moles of added inhibitor (test compound).
The Kass value is the hypothetical equilibrium constant for the reaction between thrombin and the test compound (I). [drawing 53]
(§2) Kass is calculated for a range of concentrations of test compounds and the mean value is reported in units of liter per mole.

[2] = target: T2, factor Xa (Homo sapiens, UniProt P00742); assay: Serine protease inhibition, factor Xa (chromogenic substrate), Kass; assay type: biochemical; settings: substrate N-Benzoyl-Ile-Glu-Gly-Arg-p-nitroanilide
T2 construct: Human factors X, Xa, IXa, XIa, and xIIa are purchased from Enzyme Research Laboratories; purchased Enzyme Research Laboratories, South Bend, Ind
Experimental: as §1, §2
(§3) By substantially following the procedures described above for human thrombin, and using other human blood coagulation system serine proteases, and using fibrinolytic system serine proteases, with the appropriate chromogenic substrate, identified below, selectivity of the compounds of the present invention with respect to the coagulation factor serine proteases and to the fibrinolytic serine proteases are evaluated as well as their substantial lack of interference with human plasma clot fibrinolysis.
(§4) Human factors X, Xa, IXa, XIa, and xIIa are purchased from Enzyme Research Laboratories, South Bend, Ind.; human urokinase from Leo Pharmaceuticals, Denmark; and recombinant activated Protein C (aPC) is prepared at Eli Lilly and Co. substantially according to U.S. Pat. No. 4,981,952 incorporated by reference herein in its entirety. Chromogenic substrates: N-Benzoyl-Ile-Glu-Gly-Arg-p-nitroanilide (for factor Xa); N-Cbz-D-Arg-Gly-Arg-p-nitroanilide (for factor IXa assay as the factor Xa substrate) pyroglutamyl-Pro-Arg-p-nitroanilide (for factor XIa and for aPC); H-D-Pro-Phe-Arg-p-nitroanilide (for factor XIIa); and pyroglutamyl-Gly-Arg-p-nitroanilide (for urokinase); are purchased from KabiVitrum, Stockholm, Sweden, or from Midwest Biotech, Fishers, Indiana. Bovine trypsin is purchased from Worthington Biochemicals, Freehold, N.J., and human plasma kallikrein from Kabi Vitrum, Stockholm, Sweden. N-Benzoyl-Phe-Val-Arg-p-nitroanilide, the substrate for human thrombin and for trypsin, is synthesized according to procedures described above for the compounds of the present invention, known methods of peptide coupling from commercially available reactants, or was purchased from Midwest Biotech, Fishers, Ind. Human plasmin is purchased from Boehringer Mannheim, Indianapolis, Ind.; nt-PA is purchased as single chain activity reference from American Diagnostics, Greenwich, Conn.; modified-t-PA6 (mt-PA6) is prepared at Eli Lilly and Company by procedure known in the art (See, Burck, et al., J. Biol. Chem., 265, […] (1990). Plasmin chromogenic substrate H-D-Val-Leu-Lys-p-nitroanilide and tissue plasminegen activator (t-PA) substrate H-D-Ile-Pro-Arg-p-nitroanilide are purchased from Kabi Vitrum, Stockholm, Sweden.

[3] = target: T3, Bovine trypsin (Bos taurus, UniProt P00760); assay: Serine protease inhibition, trypsin (chromogenic substrate), Kass; assay type: biochemical; settings: substrate N-Benzoyl-Phe-Val-Arg-p-nitroanilide
T3 construct: Bovine trypsin is purchased from Worthington Biochemicals, Freehold, N.J; purchased Worthington Biochemicals, Freehold, N.J
T3 sequence (P00760 24-246): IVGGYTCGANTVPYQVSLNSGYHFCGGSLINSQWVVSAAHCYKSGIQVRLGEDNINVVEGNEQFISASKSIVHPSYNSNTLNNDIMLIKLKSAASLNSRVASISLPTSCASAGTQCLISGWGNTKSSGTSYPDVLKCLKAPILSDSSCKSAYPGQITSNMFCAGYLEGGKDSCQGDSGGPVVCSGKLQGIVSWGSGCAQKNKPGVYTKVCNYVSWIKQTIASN
Experimental: as §1, §2, §3, §4

[4] = target: T4, Human plasmin (Homo sapiens, UniProt P00747); assay: Serine protease inhibition, plasmin (chromogenic substrate), Kass; assay type: biochemical; settings: substrate H-D-Val-Leu-Lys-p-nitroanilide
T4 construct: Human plasmin is purchased from Boehringer Mannheim, Indianapolis, Ind; purchased Boehringer Mannheim, Indianapolis, Ind
Experimental: as §1, §2, §3, §4

[5] = target: T5, tissue plasminogen activator (t-PA) (Homo sapiens, UniProt P00750); assay: Serine protease inhibition, t-PA (chromogenic substrate), Kass; assay type: biochemical; settings: substrate H-D-Ile-Pro-Arg-p-nitroanilide
T5 construct: purchased American Diagnostics, Greenwich, Conn
Experimental: as §1, §2, §3, §4

[6] = system: Human Plasma; assay: Anticoagulation in human plasma, thrombin time (TT); assay type: biochemical; settings: concentration required to double the thrombin time
Experimental: (§5) Dog plasma and rat plasma are obtained from conscious mixed-breed hounds (either sex, Hazelton-LRE, Kalamazoo, Mich., U.S.A.) or from anesthetized male Sprague-Dawley rats (Harlan Sprague-Dawley, Inc., Indianapolis, Ind., U.S.A.) by venipuncture into 3.8 percent citrate. Fibrinogen is prepared from in-date ACD human blood as the fraction I-2 according to previous procedures and specifications. Smith, Biochem. Chem. […] Human fibrinogen is also purchased as 98 percent pure/plasmin free from American Diagnostics, Greenwich, Conn. Coagulation reagents ACTIN, Thromboplastin, and Human plasma are from Baxter Healthcare Corp., Dade Division, Miami, Fla. Bovine thrombin from Parke-Davis (Ann Arbor, Mich.) is used for coagulation assays in plasma. Coagulation assay procedures are as previously described. Smith, et al., Thrombosis Research, 5, 163-174 (1988). A CoAScreener coagulation instrument (American LABor, Inc.) is used for all coagulation assay measurements. The prothrombin time (PT) is measured by adding 0.05 ml saline and 0.05 ml Thromboplastin-C reagent to 0.05 ml test plasma. The activated partial thromboplastin time (APTT) is measured by incubation of 0.05 ml test plasma with 0.05 ml Actin reagent for 120 seconds followed by 0.05 ml CaCl2 (0.02M). […] The compounds of formula I are added to human or animal plasma over a wide range of concentrations to determine prolongation effects on the APTT, PT, and TT assays. Linear extrapolations are performed to estimate the concentrations required to double the clotting time for each assay.

[7] = system: Human Plasma; assay: Anticoagulation in human plasma, activated partial thromboplastin time (APTT); assay type: biochemical; settings: concentration required to double the APTT
Experimental: as §5

[8] = system: Human Plasma; assay: Anticoagulation in human plasma, prothrombin time (PT); assay type: biochemical; settings: concentration required to double the PT
Experimental: as §5

[9] = Index of bioavailability (plasma TT AUC, p.o. vs i.v.); settings: rats, adjusted for dose

T2 sequence (P00742 235-488 limits assumed): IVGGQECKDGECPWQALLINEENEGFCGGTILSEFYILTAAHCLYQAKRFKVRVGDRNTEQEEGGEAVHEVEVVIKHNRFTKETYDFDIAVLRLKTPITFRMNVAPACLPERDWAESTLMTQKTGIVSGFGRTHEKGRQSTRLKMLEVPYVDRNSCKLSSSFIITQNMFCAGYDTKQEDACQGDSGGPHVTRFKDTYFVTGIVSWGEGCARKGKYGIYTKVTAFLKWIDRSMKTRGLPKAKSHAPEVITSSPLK
T2 sequence (P00742 41-179 partner limits assumed): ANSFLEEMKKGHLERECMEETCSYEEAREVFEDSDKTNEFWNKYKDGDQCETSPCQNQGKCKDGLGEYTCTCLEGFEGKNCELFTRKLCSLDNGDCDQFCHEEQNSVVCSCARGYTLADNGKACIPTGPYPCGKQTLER
T4 sequence (P00747 581-810 limits assumed): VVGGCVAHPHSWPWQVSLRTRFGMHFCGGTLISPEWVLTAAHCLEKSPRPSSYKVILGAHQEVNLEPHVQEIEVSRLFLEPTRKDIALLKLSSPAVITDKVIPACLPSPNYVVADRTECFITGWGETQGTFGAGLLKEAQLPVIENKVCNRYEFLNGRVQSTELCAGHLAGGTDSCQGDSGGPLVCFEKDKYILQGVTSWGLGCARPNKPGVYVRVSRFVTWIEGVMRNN
T4 sequence (P00747 97-580 partner limits assumed): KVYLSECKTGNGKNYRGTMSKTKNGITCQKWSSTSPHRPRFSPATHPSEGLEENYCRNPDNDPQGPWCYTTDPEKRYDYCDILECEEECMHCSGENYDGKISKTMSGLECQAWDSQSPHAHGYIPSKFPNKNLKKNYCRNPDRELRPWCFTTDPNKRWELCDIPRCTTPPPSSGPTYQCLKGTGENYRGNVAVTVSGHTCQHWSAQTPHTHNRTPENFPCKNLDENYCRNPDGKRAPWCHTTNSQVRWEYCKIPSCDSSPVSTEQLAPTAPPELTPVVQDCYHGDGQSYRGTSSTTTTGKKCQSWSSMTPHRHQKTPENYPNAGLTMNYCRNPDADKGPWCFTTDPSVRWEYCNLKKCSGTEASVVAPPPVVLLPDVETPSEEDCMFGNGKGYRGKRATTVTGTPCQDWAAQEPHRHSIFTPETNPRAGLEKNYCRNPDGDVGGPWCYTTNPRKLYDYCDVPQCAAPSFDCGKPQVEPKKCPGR
T5 sequence (P00750 36-562): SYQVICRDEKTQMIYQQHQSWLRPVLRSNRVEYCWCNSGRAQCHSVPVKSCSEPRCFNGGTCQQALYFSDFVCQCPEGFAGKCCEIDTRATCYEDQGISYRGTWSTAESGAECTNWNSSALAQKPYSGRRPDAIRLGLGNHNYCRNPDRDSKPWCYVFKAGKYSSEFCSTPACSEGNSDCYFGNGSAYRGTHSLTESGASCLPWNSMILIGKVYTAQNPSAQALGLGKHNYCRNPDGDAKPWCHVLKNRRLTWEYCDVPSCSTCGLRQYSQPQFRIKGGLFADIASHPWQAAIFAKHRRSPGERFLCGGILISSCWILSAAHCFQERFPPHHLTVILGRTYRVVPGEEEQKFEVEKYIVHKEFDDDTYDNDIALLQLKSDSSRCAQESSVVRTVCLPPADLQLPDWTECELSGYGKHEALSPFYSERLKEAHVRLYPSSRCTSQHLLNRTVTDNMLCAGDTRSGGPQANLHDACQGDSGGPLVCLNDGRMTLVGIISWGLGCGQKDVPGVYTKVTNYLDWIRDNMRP

| Enzyme Kass, Human Thrombin [1] [L/mol × 10^6] | Enzyme Kass, Xa [2] [L/mol × 10^6] | Enzyme Kass, Trypsin [3] [L/mol × 10^6] | Enzyme Kass, Plasmin [4] [L/mol × 10^6] | Enzyme Kass, t-Pa [5] [L/mol × 10^6] | Structure (SMILES) | 2 × Clotting time, TT [6] [ng/mL] | 2 × Clotting time, APTT [7] | 2 × Clotting time, PT [8] | Index of Bioavailability, % Relative Activity [9] [%] |
| --- | --- | --- | --- | --- | --- | --- | --- | --- | --- |
| 68 | 2.8 | 52 | 3.4 | 0.31 | Cl.N=C(N)NCCC[C@@H](C=O)NC(=O)[C@@H]1CCCN1C(=O)[C@@H](Cc1ccccc1)NS(=O)(=O)c1nccs1 [Example 19, 2-Thiazolyl-SO2 -D-Phe-Pro-Arg-H-HCl] | 66 | 810 ng/mL | 2,900 ng/ML | – |
| 510 | 45 | 160 | 14 | 0.34 | CCS(=O)(=O)N[C@@H](C(=O)N1CCC[C@H]1C(=O)N[C@H](C=O)CCCNC(=N)N)c1ccccc1.Cl [Example 20, EtSO2 -D-Phg-Pro-Arg-H.HCl] | 34 | 250 ng/mL | 880 ng/mL | – |
| 200 | 0.83 | 2.5 | 2.5 | 0.088 | Cl.NC(N)=NCCCC(C=O)NC(=O)C1CCCN1C(=O)C(CC1CCCCC1)NC(=O)c1ccc2ccccc2n1 [Example 6, N-(quinolinyl-2-carbonyl)-D-Cha-Pro-Arg-H-HCl] | 97 | 1,400 ng/ML | 2,700 ng/ML | – |
| 13 | 0.067 | 5.2 | 0.27 | 0.22 | Cl.NC(N)=NCCCC(C=O)NC(=O)C1CCCN1C(=O)C(Cc1ccccc1)NC(=O)Cc1cccnc1 [Example 4, N-(α-(3-pyridyl)-acetyl)-D-Phe-Pro-Arg-H-HCl] | 150 | 2,300 ng/ML | 3,400 ng/ML | – |
| 260 | 11 | 200 | 18 | 2.7 | Cc1noc(C)c1S(=O)(=O)N[C@H](Cc1ccccc1)C(=O)N1CCC[C@H]1C(=O)N[C@H](C=O)CCCNC(=N)N.Cl [Example 16, 3,5-Me-4-isoxazolyl-SO2 -D-Phe-Pro-Arg-H.HCl] | 33 | 430 ng/mL | 1,300 ng/ML | – |
| 25 | 0.21 | 60 | 2.0 | 0.54 | CCNC(=O)N[C@H](Cc1ccccc1)C(=O)N1CCC[C@H]1C(=O)N[C@H](C=O)CCCN=C(N)N.Cl [Example 32, EtNHCO-D-Phe-Pro-Arg-H.HCl] | 63 | 1,100 ng/ML | 1,700 ng/ML | – |
| 360 | 8.1 | 140 | 26 | 0.75 | CCOC(=O)N[C@H](CC1CCCCC1)C(=O)N1CCC[C@H]1C(=O)N[C@H](C=O)CCCN=C(N)N.Cl [Example 34, EtOCO-D-Cha-Pro-Arg-H.HCl] | 48 | 410 ng/mL | 890 ng/mL | – |

| Structure (SMILES) | Enzyme Kass, Human Thrombin [1] [L/mol × 10^6] | Enzyme Kass, Xa [2] [L/mol × 10^6] | Enzyme Kass, Trypsin [3] [L/mol × 10^6] | Enzyme Kass, Plasmin [4] [L/mol × 10^6] | Enzyme Kass, t-Pa [5] [L/mol × 10^6] | 2 × Clotting time, TT [6] [ng/mL] | 2 × Clotting time, APTT [7] | 2 × Clotting time, PT [8] | Index of Bioavailability, % Relative Activity [9] [%] |
| --- | --- | --- | --- | --- | --- | --- | --- | --- | --- |
| CS(=O)(=O)N[C@H](Cc1ccccc1)C(=O)N1CCC[C@H]1C(=O)N[C@H](C=O)CCCNC(=N)N.Cl [Example 7, MeSO2 -D-Phe-Pro-Arg-H.HCl] | 690 | 2.4 | 220 | 17 | 13 | 21 | 330 ng/mL | 530 ng/mL | 27 |
| Cl.N=C(N)NCCC[C@@H](C=O)NC(=O)[C@@H]1CCCN1C(=O)[C@@H](Cc1ccccc1)NC(=O)c1cccnc1 [Example 3, N-Nicotinoyl-D-Phe-Pro-Arg-H.HCl] | 58 | 0.080 | 12 | 0.41 | 0.17 | 47 | 1,300 ng/ML | 1,700 ng/ML | 3 |
| CCCCS(=O)(=O)N[C@H](Cc1ccccc1)C(=O)N1CCC[C@H]1C(=O)N[C@H](C=O)CCCNC(=N)N.Cl [Example 10, n-Bu-SO2 -D-Phe-Pro-Arg-H.HCl] | 470 | 8.3 | 230 | 27 | 0.83 | 18 | 300 ng/mL | 700 ng/mL | 18 |
